Data published in the supplement of paper PMC4862054.

Legend:
Conditions in all cases: 72 h
MDA-MB-231 [1] = test system: MDA-MB-231
Experimental: (§1)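 Drug sensitivity and resistance testing (DSRT) of breast cancer cell lines in 384-well plates, 5 concentrations in 10-fold dilutions over a compound-specific 10,000-fold range. After 72 h, cytotoxicity was read by CellTox Green fluorescence and viability by CellTiter-Glo luminescence (multiplexed), normalised to DMSO and benzethonium chloride controls. EC50 is the inflection point of the fitted dose-response curve (bottom asymptote free, so it can be relative for partial curves) and is censored at the highest tested concentration. Rows with DSS 0 (no meaningful response) were excluded.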

CAL-51 [2] = test system: CAL-51
Experimental: as §1

CAL-120 = test system: CAL-120
Procedure, shortened: (§2)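 EC50 was fitted from dose-response curves and censored at the highest concentration tested. To build those curves, breast cancer cell lines (20 µl suspension) were seeded into 384-well plates containing compound at 5 concentrations in 10-fold steps over a compound-specific 10,000-fold range and incubated for 72 h. Readouts were CellTox Green fluorescence (485/520 nm) for cell death and then CellTiter-Glo luminescence for viability, with each plate normalised to 0.1 % DMSO and a positive kill control.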

HCC1143 = test system: HCC1143
Procedure, shortened: as §2

MDA-MB-453 [3] = test system: MDA-MB-453
Procedure, shortened: as §2

MDA-MB-436 = test system: MDA-MB-436
Procedure, shortened: as §2

HDQ-P1 [4] = test system: HDQ-P1
Procedure, shortened: as §2

BT-474 = test system: BT-474
Procedure, shortened: as §2

MCF-10A = test system: MCF-10A
Procedure, shortened: as §2

MDA-MB-231 [5] = test system: MDA-MB-231; remark: listed apart in the source
Procedure, shortened: as §2

MFM-223 = test system: MFM-223
Procedure, shortened: as §2

CAL-51 [6] = test system: CAL-51; remark: listed apart in the source
Procedure, shortened: as §2

MDA-MB-453 [7] = test system: MDA-MB-453; remark: listed apart in the source
Procedure, shortened: (§3)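 Viability of breast cancer cell lines was measured with CellTiter-Blue after 72 h of incubation on compound-loaded 384-well plates. Cells were seeded in 20 µl onto compound dissolved in 5 µl medium, and 2.5 µl reagent was added for 2 h at 37 °C before reading at 560/590 nm. EC50 was fitted from percent-inhibition dose-response data censored at the highest concentration, normalised per plate to vehicle and a positive kill control, with zero drug sensitivity score rows dropped.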

HDQ-P1 [8] = test system: HDQ-P1; remark: listed apart in the source
Procedure, shortened: as §3

DU-4475 [9] = test system: DU-4475
Procedure, shortened: as §3

CAL-51 [10] = test system: CAL-51; remark: listed apart in the source
Procedure, shortened: as §3

CAL-85-1 [11] = test system: CAL-85-1
Procedure, shortened: as §3

Hs578T = test system: Hs578T
Procedure, shortened: as §2

CAL-148 = test system: CAL-148
Procedure, shortened: as §2

CAL-85-1 [12] = test system: CAL-85-1; remark: listed apart in the source
Procedure, shortened: as §2

SK-BR-3 = test system: SK-BR-3
Procedure, shortened: as §2

DU-4475 [13] = test system: DU-4475; remark: listed apart in the source
Procedure, shortened: as §2

HCC1599 = test system: HCC1599
Procedure, shortened: as §2

Row | Compound | EC50, CellTox Green (MDA-MB-231 [1]) [nM] | EC50, CellTox Green (CAL-51 [2]) [nM] | EC50, CellTiter-Glo (CAL-120) [nM] | EC50, CellTiter-Glo (HCC1143) [nM] | EC50, CellTiter-Glo (MDA-MB-453 [3]) [nM] | EC50, CellTiter-Glo (MDA-MB-436) [nM] | EC50, CellTiter-Glo (HDQ-P1 [4]) [nM] | EC50, CellTiter-Glo (BT-474) [nM] | EC50, CellTiter-Glo (MCF-10A) [nM] | EC50, CellTiter-Glo (MDA-MB-231 [5]) [nM] | EC50, CellTiter-Glo (MFM-223) [nM] | EC50, CellTiter-Glo (CAL-51 [6]) [nM] | EC50, CellTiter-Blue viability (MDA-MB-453 [7]) [nM] | EC50, CellTiter-Blue viability (HDQ-P1 [8]) [nM] | EC50, CellTiter-Blue viability (DU-4475 [9]) [nM] | EC50, CellTiter-Blue viability (CAL-51 [10]) [nM] | EC50, CellTiter-Blue viability (CAL-85-1 [11]) [nM] | EC50, CellTiter-Glo (Hs578T) [nM] | EC50, CellTiter-Glo (CAL-148) [nM] | EC50, CellTiter-Glo (CAL-85-1 [12]) [nM] | EC50, CellTiter-Glo (SK-BR-3) [nM] | EC50, CellTiter-Glo (DU-4475 [13]) [nM] | EC50, CellTiter-Glo (HCC1599) [nM]
1 | COC(=O)c1ccc2c(c1)NC(=O)/C2=C(\Nc1ccc(N(C)C(=O)CN2CCN(C)CC2)cc1)c1ccccc1 [Nintedanib] | 2190 | 2950 | 2380 | 4780 | 3110 | 5340 | 1080 | 3550 | 584 | 2580 | 408 | 1880 | – | – | – | – | – | – | – | – | – | – | –
2 | CC(C)C[C@@H](C(=O)N[C@H](C(=O)OC1CCCC1)c1ccccc1)[C@H](O)C(=O)NO [Tosedostat] | 52.9 | 35.5 | 127 | 405 | 55.8 | 335 | 630 | 93.2 | – | 366 | 528 | 854 | 86.3 | 268 | 126 | 6030 | 2940 | 8270 | 327 | 182 | – | – | –
3 | COc1cc2/c(=N/c3ccc(Br)cc3F)nc[nH]c2cc1OCC1CCN(C)CC1 [Vandetanib] | – | – | > 1000 | – | – | > 1000 | – | 110 | 150 | – | 370 | > 1000 | 4640 | 191 | – | 2900 | 2590 | – | – | – | – | – | –
4 | CCOC(=O)CCNc1cc(N2CCc3ccccc3CC2)nc(-c2ccccn2)n1 [GSK-J4] | 11300 | 9960 | 12100 | 8690 | 2960 | 4330 | 11700 | 9140 | 9270 | 6150 | 7940 | 1340 | – | – | – | – | – | 12200 | 3440 | 5180 | 11600 | 7170 | 9370
5 | Cc1ccc(NC(=O)c2ccc(CN3CCN(C)CC3)cc2)cc1Nc1nc(-c2cccnc2)cs1 [Masitinib] | 3220 | – | – | – | 1620 | – | 4910 | 7580 | – | > 10000 | > 10000 | 5460 | 4580 | – | – | – | – | – | – | – | 7390 | – | 9360
6 | COc1cc(O)c2c(c1)/C=C/C[C@H](O)[C@H](O)C(=O)/C=C\C[C@H](C)OC2=O [(5Z)-7-Oxozeaenol] | 864 | 9350 | 2450 | 7820 | 8350 | 1560 | 2330 | 2160 | 532 | 1430 | 2170 | 3770 | – | – | – | – | – | 3250 | 1460 | 605 | 6390 | 173 | 5830
7 | O=C(/C=C/c1cccc(S(=O)(=O)Nc2ccccc2)c1)NO [Belinostat] | 261 | 680 | 634 | 803 | 158 | 1250 | 2830 | 458 | 1150 | 564 | 264 | 29.2 | 125 | 488 | 478 | 1170 | 666 | 989 | 370 | 738 | 229 | 358 | 826
8 | Cc1[nH]c2ccccc2c1CCNCc1ccc(/C=C/C(=O)NO)cc1 [Panobinostat] | 21.6 | 30.8 | 62.3 | 33.5 | 9.95 | 58.2 | 115 | 31.8 | 89.1 | 24.3 | 27.6 | 22.6 | 4.43 | 35 | 18.2 | 49.7 | 23.8 | 43.2 | 21 | 33.4 | 13.7 | 18.3 | 46.4
